Measured values reported in publication PMC9606955, “In Vitro Activity of Essential Oils Distilled from Colombian Plants against Candida auris and Other Candida Species with Different Antifungal Susceptibility Profiles” (Molecules, 2022).
≈ marks a conversion by molar mass, not a printed value. Values belong to the compound of their own block, whether it stands above or below them.

Columns and labels:
C. auris = experiment: Screening of antifungal activity at 256 µg/mL against C. auris; format: cell-based, Candida auris; conditions: screening at 256 µg/mL, clinical isolates of C. auris
Text: (§1) The fungal strains used in this study were C. albicans ATCC 10231, C. albicans ATCC 64550, C. parapsilosis ATCC 22019, C. tropicalis ATCC 750, C. tropicalis ATCC 200956 (resistant to azoles and AMB), C. glabrata LMDM 34 (resistant to echinocandins), C. metapsilosis MUM 15.12, C. orthopsilosis MUM 17.13, C. lusitaniae MUM 17.08, C. krusei ATCC 6258 (Issatchenkia orientalis ATCC 6258), and C. auris CDC B11903. Additionally, nine clinical isolates were included: C. parapsilosis Synlab 406 (FLC-resistant) and eight C. auris isolates identified by MALDI-TOF MS (Bruker Daltonics, Bremen, Germany) according to Zhao et al.. These yeasts were cultured on Sabouraud Dextrose Agar (SDA; Sigma-Aldrich, St. Louis, MO, USA) for 24 h at 35 °C.
Antifungal susceptibility testing was performed according to Clinical and Laboratory Standards Institute M27, 4th Edition (CLSI standard M27, 4th Edition). Some modifications were applied for evaluation of the antifungal activity of EOs and terpenes. Initially, a screening was carried out to determine the antifungal activity of the EOs and of commercial terpenes. Stock concentrations of EOs and terpenes were prepared at 512 µg/mL and an inoculum of 2.5 × 10^3 CFU/mL of each yeast was prepared in RPMI 1640-MOPS (Sigma- Aldrich St. Louis, MO, USA). Thereafter, 100 µL of each stock solution of EOs or terpenes was dispensed in 96-well microdilution plates (Corning®, Costar®, NY, USA) and 100 µL of each yeast inoculum was added. […] MICs were visually determined at the lowest concentration that produced visual inhibition compared to the growth control. […] The results were expressed as geometric means (GM) and ranges. As an antifungal susceptibility testing control, the activity of ITC and AMB against the reference strains C. krusei ATCC 6258 and C. parapsilosis ATCC 22019 was evaluated in all experiments following the CLSI standard M27, 4th Edition. […]

[1] = test system: C. orthopsilosis MUM 17.13; experiment: MIC, CLSI M27 broth microdilution; format: cell-based, Candida orthopsilosis; conditions: C. orthopsilosis MUM 17.13, antifungal drugs
Text: as §1
(§2) Antifungal susceptibility testing was performed according to Clinical and Laboratory Standards Institute M27, 4th Edition (CLSI standard M27, 4th Edition). Some modifications were applied for evaluation of the antifungal activity of EOs and terpenes. Initially, a screening was carried out to determine the antifungal activity of the EOs and of commercial terpenes. Stock concentrations of EOs and terpenes were prepared at 512 µg/mL and an inoculum of 2.5 × 10^3 CFU/mL of each yeast was prepared in RPMI 1640-MOPS (Sigma- Aldrich St. Louis, MO, USA). Thereafter, 100 µL of each stock solution of EOs or terpenes was dispensed in 96-well microdilution plates (Corning®, Costar®, NY, USA) and 100 µL of each yeast inoculum was added. […] Microdilution plates were incubated at 35 °C and, after 24 h, the presence or absence of growth was visually checked using a manual mirror viewer and then compared with the amount of growth in the control (no EO or terpene). Compounds able to inhibit yeast growth were tested to determine the minimal inhibitory concentration (MIC) as follows: 100 µL of 10 two-fold dilutions of the EOs or commercial terpenes was dispensed in 96-well microplates and the yeast inoculum was added. Final concentrations of the EOs or terpenes ranged from 0.5 µg/mL to 256 µg/mL. Microdilution plates were incubated at 35 °C for 24 h. MICs were visually determined at the lowest concentration that produced visual inhibition compared to the growth control. The assays were performed at least three times in duplicate on different days. The results were expressed as geometric means (GM) and ranges. As an antifungal susceptibility testing control, the activity of ITC and AMB against the reference strains C. krusei ATCC 6258 and C. parapsilosis ATCC 22019 was evaluated in all experiments following the CLSI standard M27, 4th Edition. It was mandatory that the MIC values remained in the accepted range.

[2] = test system: C. metapsilosis MUM 15.12; experiment: MIC, CLSI M27 broth microdilution; format: cell-based, Candida metapsilosis; conditions: C. metapsilosis MUM 15.12, antifungal drugs
Text: as §1, §2

[3] = test system: C. parapsilosis ATCC 22019; experiment: MIC, CLSI M27 broth microdilution; format: cell-based, Candida parapsilosis; conditions: antifungal drugs
Text: as §1, §2

[4] = test system: C. parapsilosis Synlab 406; experiment: MIC, CLSI M27 broth microdilution; format: cell-based, Candida parapsilosis; conditions: C. parapsilosis Synlab 406, antifungal drugs
Text: as §1, §2

C. glabrata LMDM 34 = experiment: MIC, CLSI M27 broth microdilution; format: cell-based, Candida glabrata
Text: as §1, §2

C. albicans ATCC 64550 = experiment: MIC, CLSI M27 broth microdilution; format: cell-based, Candida albicans; conditions: antifungal drugs
Text: as §1, §2

C. albicans ATCC 10231 = experiment: MIC, CLSI M27 broth microdilution; format: cell-based, Candida albicans; conditions: antifungal drugs
Text: as §1, §2

C. auris Ca 32 = experiment: MIC, CLSI M27 broth microdilution; format: cell-based, Candida auris; conditions: C. auris Ca 32, antifungal drugs
Text: as §1, §2

C. auris Ca 46 = experiment: MIC, CLSI M27 broth microdilution; format: cell-based, Candida auris; conditions: C. auris Ca 46, antifungal drugs
Text: as §1, §2

C. auris Ca 10 = experiment: MIC, CLSI M27 broth microdilution; format: cell-based, Candida auris; conditions: antifungal drugs
Text: as §1, §2

C. auris Ca 17 = experiment: MIC, CLSI M27 broth microdilution; format: cell-based, Candida auris; conditions: C. auris Ca 17, antifungal drugs
Text: as §1, §2

C. auris Ca 9 = experiment: MIC, CLSI M27 broth microdilution; format: cell-based, Candida auris; conditions: C. auris Ca 9, antifungal drugs
Text: as §1, §2

C. auris Ca 45 = experiment: MIC, CLSI M27 broth microdilution; format: cell-based, Candida auris; conditions: C. auris Ca 45, antifungal drugs
Text: as §1, §2

C. auris Ca 1 = experiment: MIC, CLSI M27 broth microdilution; format: cell-based, Candida auris; conditions: C. auris Ca 1, antifungal drugs
Text: as §1, §2

C. auris CDC B11903 = experiment: MIC, CLSI M27 broth microdilution; format: cell-based, Candida auris; conditions: C. auris CDCB11903, antifungal drugs
Text: as §1, §2

C. auris Ca 41 = experiment: MIC, CLSI M27 broth microdilution; format: cell-based, Candida auris; conditions: C. auris Ca 41, antifungal drugs
Text: as §1, §2

C. lusitaniae MUM 17.08 = experiment: MIC, CLSI M27 broth microdilution; format: cell-based, Candida lusitaniae; conditions: C. lusitaniae MUM 17.08, antifungal drugs
Text: as §1, §2

C. krusei ATCC 6258 = experiment: MIC, CLSI M27 broth microdilution; format: cell-based, Candida krusei; conditions: C. krusei ATCC 6258, antifungal drugs
Text: as §1, §2

[5] = test system: C. tropicalis ATCC 200956; experiment: MIC, CLSI M27 broth microdilution; format: cell-based, Candida tropicalis; conditions: C. tropicalis ATCC 200956, antifungal drugs
Text: as §1, §2

C. tropicalis ATCC 750 = experiment: MIC, CLSI M27 broth microdilution; format: cell-based, Candida tropicalis; conditions: antifungal drugs
Text: as §1, §2

SMILES: C=C(C)C1CC=C(C)C(O)C1 (mixture of isomers) [carveol]
antifungal activity in screening against C. auris (C. auris): active against only some of the clinical isolates of C. auris

MIC Range [1]: 1 µg/mL (≈ 0.915 µM)
MIC ([1]; Lodderomyces orthopsilosis, MUM17.13, geometric mean, read-out: MIC GM): 1 µg/mL (≈ 0.915 µM)
MIC Range [2]: 1 µg/mL (≈ 0.915 µM)
MIC ([2]; Lodderomyces metapsilosis, MUM15.12, geometric mean, read-out: MIC GM): 1 µg/mL (≈ 0.915 µM)
MIC ([3]; Lodderomyces parapsilosis, ATCC22019, geometric mean): 1 µg/mL (≈ 0.915 µM)
MIC Range [3]: 1 µg/mL (≈ 0.915 µM)
MIC Range [4]: 2 µg/mL (≈ 1.83 µM)
MIC ([4]; Lodderomyces parapsilosis, SYNLAB406, geometric mean, read-out: MIC GM): 2 µg/mL (≈ 1.83 µM)
MIC (C. glabrata LMDM 34; Nakaseomyces glabratus, LMDM34, geometric mean, antifungal drugs): 8 µg/mL (≈ 7.32 µM)
MIC Range (C. glabrata LMDM 34; antifungal drugs): 8 µg/mL (≈ 7.32 µM)
MIC (C. albicans ATCC 64550; Candida albicans, ATCC64550, geometric mean): 0.35 µg/mL (≈ 0.32 µM)
MIC Range (C. albicans ATCC 64550): 0.25 to 0.5 µg/mL
MIC (C. albicans ATCC 10231; Candida albicans, ATCC10231, geometric mean): 0.18 µg/mL (≈ 0.165 µM)
MIC Range (C. albicans ATCC 10231): 0.12 to 0.25 µg/mL
MIC Range (C. auris Ca 32): 0.5 µg/mL (≈ 0.457 µM)
MIC (C. auris Ca 32; Candidozyma auris, CA32, geometric mean, read-out: MIC GM): 0.5 µg/mL (≈ 0.457 µM)
MIC Range (C. auris Ca 46): 0.5 µg/mL (≈ 0.457 µM)
MIC (C. auris Ca 46; Candidozyma auris, CA46, geometric mean, read-out: MIC GM): 0.5 µg/mL (≈ 0.457 µM)
MIC (C. auris Ca 10; Candidozyma auris, CA10, geometric mean): 0.7 µg/mL (≈ 0.64 µM)
MIC Range (C. auris Ca 10): 0.5 to 1 µg/mL
MIC Range (C. auris Ca 17): 0.5 µg/mL (≈ 0.457 µM)
MIC (C. auris Ca 17; Candidozyma auris, CA17, geometric mean, read-out: MIC GM): 0.5 µg/mL (≈ 0.457 µM)
MIC Range (C. auris Ca 9): 0.5 µg/mL (≈ 0.457 µM)
MIC (C. auris Ca 9; Candidozyma auris, CA9, geometric mean, read-out: MIC GM): 0.5 µg/mL (≈ 0.457 µM)
MIC Range (C. auris Ca 45): 0.5 µg/mL (≈ 0.457 µM)
MIC (C. auris Ca 45; Candidozyma auris, CA45, geometric mean, read-out: MIC GM): 0.5 µg/mL (≈ 0.457 µM)
MIC Range (C. auris Ca 1): 0.5 µg/mL (≈ 0.457 µM)
MIC (C. auris Ca 1; Candidozyma auris, CA1, geometric mean, read-out: MIC GM): 0.5 µg/mL (≈ 0.457 µM)
MIC Range (C. auris CDC B11903): 0.5 µg/mL (≈ 0.457 µM)
MIC (C. auris CDC B11903; Candidozyma auris, geometric mean, read-out: MIC GM): 0.5 µg/mL (≈ 0.457 µM)
MIC Range (C. auris Ca 41): 0.5 µg/mL (≈ 0.457 µM)
MIC (C. auris Ca 41; Candidozyma auris, CA41, geometric mean, read-out: MIC GM): 0.5 µg/mL (≈ 0.457 µM)
MIC Range (C. lusitaniae MUM 17.08): 1 µg/mL (≈ 0.915 µM)
MIC (C. lusitaniae MUM 17.08; Clavispora lusitaniae, MUM17.08, geometric mean, read-out: MIC GM): 1 µg/mL (≈ 0.915 µM)
MIC Range (C. krusei ATCC 6258): 1 µg/mL (≈ 0.915 µM)
MIC (C. krusei ATCC 6258; Pichia kudriavzevii, ATCC6258, geometric mean, read-out: MIC GM): 1 µg/mL (≈ 0.915 µM)
MIC Range [5]: 0.5 µg/mL (≈ 0.457 µM)
MIC ([5]; Candida tropicalis, ATCC200956, geometric mean, read-out: MIC GM): 0.5 µg/mL (≈ 0.457 µM)
MIC (C. tropicalis ATCC 750; Candida tropicalis, ATCC750, geometric mean): 0.35 µg/mL (≈ 0.32 µM)
MIC Range (C. tropicalis ATCC 750): 0.25 to 0.5 µg/mL
SMILES: CC[C@H](C)C[C@H](C)CCCCCCCCC(=O)N[C@H]1C[C@@H](O)[C@@H](NCCN)NC(=O)[C@@H]2[C@@H](O)CCN2C(=O)[C@H]([C@H](O)CCN)NC(=O)[C@H]([C@H](O)[C@@H](O)c2ccc(O)cc2)NC(=O)[C@@H]2C[C@@H](O)CN2C(=O)[C@H]([C@@H](C)O)NC1=O [CSF, caspofungin]
susceptibility category (C. glabrata LMDM 34; resistance confirmed): resistance

SMILES: CC1=CC(=O)[C@@H]2C[C@H]1C2(C)C [verbenone]
antifungal activity in screening against C. auris (C. auris): active against only some of the clinical isolates of C. auris
